Like-named read-outs stand apart in the source and are kept apart here.
Key:
[1] = test system: Saccharomycetes Cerevisiae (Fleishmann's Bakers yeast); test: Saccharomycetes Cerevisiae yeast growth suppression, turbidity of broth suspension; assay type: cell-based; conditions: for Turbidity (NTU) OD (To) / Turbidity (NTU) OD (T1 hr) / Turbidity (NTU) OD (T18) / Turbidity (NTU) OD (T24) / Turbidity (NTU) OD (T48): Table 3; for Turbidity (NTU) OD (To): 1 ml solutions added; for Turbidity (NTU) OD (T1 hr): 1 hour; for Turbidity (NTU) OD (T48): 48 hours; for Change in Turbidity from T0 (delta NTU) OD (T1 hr) / Change in Turbidity from T0 (delta NTU) OD (T18) / Change in Turbidity from T0 (delta NTU) OD (T24) / Change in Turbidity from T0 (delta NTU) OD (T48): Table 3A; for Change in Turbidity from T0 (delta NTU) OD (T48): 48 hours minus time zero; for T18 − T0 (change in turbidity) / T48 − T0 (change in turbidity) / T72 − T0 (change in turbidity) / T96 − T0 (change in turbidity) / T18 (turbidity of yeast suspension) / T48 (turbidity of yeast suspension) / T72 (turbidity of yeast suspension) / T96 (turbidity of yeast suspension) / T0 (turbidity of yeast suspension): surfactant ~0.05 wt %; for T0 (turbidity of yeast suspension): time 0
Protocol: Saccharomycetes Cerevisiae was selected as a test organism as it is generally accepted in the industry as an indicator or surrogate organism for a wide variety of fungi. In each of these experiments, the same general procedure was followed unless otherwise indicated.
Experimental Detail: A growth medium was prepared by adding 10 grams of nutrient medium (Difco Sabouraud dextrose broth from BD of Franklin Lakes, N.J., USA) to 300 ml of distilled water. Fleishmann's Bakers yeast was then added to the growth medium while mixing using a magnetic stirrer until a uniform dispersion was obtained having an initial turbidity of between about 50 and 100 NTU as measured using a HF Instruments DRT 100B Turbidity Meter. Once the appropriate dispersion was obtained, 20 ml aliquots were then dispensed, with continued mixing, into 40 ml borosilicate glass vials with Teflon lined caps (VWR International Cat. No. 15900-004). The system/component to be evaluated was then added to the vial and intimately shaken to ensure a good, substantially homogeneous mixture. The turbidity of each mixture was then determined and the vial transferred to an incubator at 30° C. Each vial was periodically removed from the incubator and the mixture in the vials assessed for turbidity: the specific timing for such evaluation was as set forth in the discussion of the experiments and the accompanying tables.
In each experiment, unless otherwise specified, a 2 ml aqueous solution containing the specified bioactive system or component thereof was added to the 20 ml yeast suspension and mixed thoroughly. Typically the surfactants were added separately in a concentrated solution in water; however, the volume added was negligible: a fraction of an ml. For convenience in understanding efficacy levels, the amounts or concentrations of the various components presented in each of the following tables and experiments are of the diluted material in the test vial: not of the concentrate added to the test vial. Furthermore, the concentrations presented are on the basis of a 20 ml total volume, not the actual 22+ ml volume. Multiplying each of the listed concentrations by 0.9 (or 0.95 with those compositions using 1 ml aqueous solutions) will provide a more accurate assessment of the concentrations of the various components evaluated, i.e., a 5 ppm silver concentration is actually closer to 4.5 ppm. Finally, for those vials to which no bioactive system or component thereof was added (the controls) or which only contained the surfactants, 2 ml of additional growth medium was added to ensure relative equivalent dilutions of the yeast.
In the tables below, the results are presented as the actual turbidity readings (NTU) with a sub-table presenting the change or delta in NTU values. Given the nature of the system, changes in turbidity are reflective of the relative performance/bioefficacy of the bioactive systems and their components.

E. amylovora 153N = test: Fire blight on crabapples (Example 287); assay type: in vivo, Snow Drift crabapple trees; conditions: for shoot blight incidence, in words: evaluated on day 63; for canker, in words: length of cankers evaluated on day 63
Protocol: A study of the bioefficacy of the various agrichemical compositions, including bioactive acid solutions and blends thereof with an antibiotic agrichemical, were evaluated to assess their bioefficacy against fire blight on crabapples. The study was conducted on 5 year old Snow Drift crabapple trees, with each of the compositions being applied to ten trees in two-subplots of five trees, four different times: at 100% bloom-day 1, a second application was made on day 4, a third on day 11 and a final treatment on day 19. The trees were inoculated with E. amylovora […] at a concentration of 4×10^6 cells per milliliter on day 1, following drying of the treatment, with the inoculation being repeated on day 13. Evaluation for fire blight was completed on 100 blossoms for each of the subplots on day 12, day 19 and day 27. Additionally, the incidence of shoot infection and the length of […] evaluated on day 63. The test compositions were prepared by forming solutions of the bioactive agents. Two different dilutions of the MI2 bioactive were evaluated; the first employing 94.46 ml/gallon (25 ml/l) of water (5 ppm of each metal) and the second 188.9 ml/gallon (50 ml/l) of water (10 ppm of each metal). […] Finally, copper hydroxide was diluted at a rate of 1 lb/gallon (119.8 g/l). Each of the compositions and blends were spray applied at a rate of 50 gallons (189.3 l) pre acre. The results are presented as the mean of the counts.

[2] = 1 hour minus time zero, sulfate
[3] = 18 hours minus time zero, sulfate
[4] = 24 hours minus time zero, sulfate
[5] = Metal ppm 2.5, about 0.2% citric acid
[6] = Metal ppm 2.5 each of copper, silver, zinc, about 0.2% citric acid
[7] = Metal ppm 5, approximately 0.4% citric acid
[8] = Metal ppm 5 each of copper, silver, zinc, approximately 0.4% citric acid

O=C([O-])CC(O)(CC(=O)[O-])C(=O)[O-].[Ag+].[Ag+].[Ag+] [Example 1, silver citrate]
Turbidity (NTU) Time 1 Hr ([1]; Table 1, 1 hour at 30° C.): 59.6 NTU | Turbidity (NTU) T 18 hours ([1]; Table 1, 18 hours): 890 NTU | Turbidity (NTU) T 24 hours ([1]; Table 1, 24 hours): 932 NTU | Turbidity (NTU) T 96 Hours ([1]; Table 1, 96 hours): 995 NTU | Turbidity (NTU) Time zero ([1]; Table 1, time zero): 44.5 NTU | Change in Turbidity from T0 (delta NTU) Time 1 Hr ([1]; Table 1A, 1 hour minus time zero): 15.1 delta NTU | Change in Turbidity from T0 (delta NTU) T 18 hours ([1]; Table 1A, 18 hours minus time zero): 845.5 delta NTU | Change in Turbidity from T0 (delta NTU) T 24 hours ([1]; Table 1A, 24 hours minus time zero): 887.5 delta NTU | Change in Turbidity from T0 (delta NTU) T 96 Hours ([1]; Table 1A, 96 hours minus time zero): 950.5 delta NTU

CCCCCCCCCCCCOS(=O)(=O)[O-].[Na+] [Example 45]
Turbidity (NTU) OD (To) ([1]; time zero, sulfate): 43 NTU | Turbidity (NTU) OD (T1 hr) ([1]; sulfate): 47 NTU | Turbidity (NTU) OD (T18) ([1]; 18 hours, sulfate): 675 NTU | Turbidity (NTU) OD (T24) ([1]; 24 hours, sulfate): 728 NTU | Turbidity (NTU) OD (T48) ([1]; sulfate): 758 NTU | Change in Turbidity from T0 (delta NTU) OD (T1 hr) [1, 2]: 4 delta NTU | Change in Turbidity from T0 (delta NTU) OD (T18) [1, 3]: 632 delta NTU | Change in Turbidity from T0 (delta NTU) OD (T24) [1, 4]: 685 delta NTU | Change in Turbidity from T0 (delta NTU) OD (T48) ([1]; sulfate): 715 delta NTU

CCCCCCCCCCCCOS(=O)(=O)[O-].[Na+] [Example 46]
Turbidity (NTU) OD (To) ([1]; time zero, sulfate): 37 NTU | Turbidity (NTU) OD (T1 hr) ([1]; sulfate): 42 NTU | Turbidity (NTU) OD (T18) ([1]; 18 hours, sulfate): 495 NTU | Turbidity (NTU) OD (T24) ([1]; 24 hours, sulfate): 610 NTU | Turbidity (NTU) OD (T48) ([1]; sulfate): 605 NTU | Change in Turbidity from T0 (delta NTU) OD (T1 hr) [1, 2]: 5 delta NTU | Change in Turbidity from T0 (delta NTU) OD (T18) [1, 3]: 458 delta NTU | Change in Turbidity from T0 (delta NTU) OD (T24) [1, 4]: 573 delta NTU | Change in Turbidity from T0 (delta NTU) OD (T48) ([1]; sulfate): 568 delta NTU

[H]/N=C(/N)N[C@H]1[C@H](O)[C@@H](O)[C@H](O[C@@H]2O[C@@H](C)[C@](O)(C=O)[C@H]2O[C@@H]2O[C@@H](CO)[C@H](O)[C@@H](O)[C@@H]2NC)[C@@H](N/C(N)=N\[H])[C@@H]1O [streptomycin]
shoot blight incidence, in words (E. amylovora 153N): greatly reduced | canker, in words (E. amylovora 153N): appeared to prevent canker

[Cu+2].[OH-].[OH-] [copper hydroxide]
shoot blight incidence, in words (E. amylovora 153N): greatly reduced | canker, in words (E. amylovora 153N): appeared to prevent canker

copper citrate [Example 13]
Change in Turbidity from T0 (delta NTU) T 96 Hours [1]: 1054.4 delta NTU | Change in Turbidity from T0 (delta NTU) T 18 hours [1]: 894.4 delta NTU | Change in Turbidity from T0 (delta NTU) T 24 hours [1]: 975.4 delta NTU | Change in Turbidity from T0 (delta NTU) Time 1 Hr [1]: 22.4 delta NTU | Turbidity (NTU) T 96 Hours [1]: 1100 NTU | Turbidity (NTU) T 18 hours [1]: 940 NTU | Turbidity (NTU) T 24 hours [1]: 1021 NTU | Turbidity (NTU) Time 1 Hr [1]: 68 NTU | Turbidity (NTU) Time zero [1]: 45.6 NTU

O=C([O-])CC(O)(CC(=O)[O-])C(=O)[O-].O=C([O-])CC(O)(CC(=O)[O-])C(=O)[O-].[Zn+2].[Zn+2].[Zn+2] [Example 7, zinc citrate]
Change in Turbidity from T0 (delta NTU) T 96 Hours [1]: 1007.2 delta NTU | Change in Turbidity from T0 (delta NTU) T 18 hours [1]: 948.2 delta NTU | Change in Turbidity from T0 (delta NTU) T 24 hours [1]: 949.2 delta NTU | Change in Turbidity from T0 (delta NTU) Time 1 Hr [1]: 20.7 delta NTU | Turbidity (NTU) T 96 Hours [1]: 1051 NTU | Turbidity (NTU) T 18 hours [1]: 992 NTU | Turbidity (NTU) T 24 hours [1]: 993 NTU | Turbidity (NTU) Time 1 Hr [1]: 64.5 NTU | Turbidity (NTU) Time zero [1]: 43.8 NTU

O=C(O)CC(O)(CC(=O)O)C(=O)O [Example 50, citric acid]
Turbidity (NTU) OD (To) ([1]; time zero): 38 NTU | Turbidity (NTU) OD (T1 hr) [1]: 44 NTU | Turbidity (NTU) OD (T18) ([1]; 18 hours): 780 NTU | Turbidity (NTU) OD (T24) ([1]; 24 hours): 864 NTU | Turbidity (NTU) OD (T48) [1]: 852 NTU | Change in Turbidity from T0 (delta NTU) OD (T1 hr) ([1]; 1 hour minus time zero): 6 delta NTU | Change in Turbidity from T0 (delta NTU) OD (T18) ([1]; 18 hours minus time zero): 742 delta NTU | Change in Turbidity from T0 (delta NTU) OD (T24) ([1]; 24 hours minus time zero): 826 delta NTU | Change in Turbidity from T0 (delta NTU) OD (T48) [1]: 814 delta NTU

O=C(O)CC(O)(CC(=O)O)C(=O)O [Example 49, citric acid]
Turbidity (NTU) OD (To) ([1]; time zero): 42 NTU | Turbidity (NTU) OD (T1 hr) [1]: 46 NTU | Turbidity (NTU) OD (T18) ([1]; 18 hours): 835 NTU | Turbidity (NTU) OD (T24) ([1]; 24 hours): 920 NTU | Turbidity (NTU) OD (T48) [1]: 878 NTU | Change in Turbidity from T0 (delta NTU) OD (T1 hr) ([1]; 1 hour minus time zero): 4 delta NTU | Change in Turbidity from T0 (delta NTU) OD (T18) ([1]; 18 hours minus time zero): 793 delta NTU | Change in Turbidity from T0 (delta NTU) OD (T24) ([1]; 24 hours minus time zero): 878 delta NTU | Change in Turbidity from T0 (delta NTU) OD (T48) [1]: 836 delta NTU

CCCCCCCCCCCCOS(=O)(=O)[O-].[Na+]
T18 − T0 (change in turbidity) ([1]; neat, Metal ppm 0): 447 | T48 − T0 (change in turbidity) ([1]; neat, Metal ppm 0): 610 | T72 − T0 (change in turbidity) ([1]; neat, Metal ppm 0): 594 | T96 − T0 (change in turbidity) ([1]; neat, Metal ppm 0): 591 | T18 (turbidity of yeast suspension) ([1]; neat, Metal ppm 0): 495 | T48 (turbidity of yeast suspension) ([1]; neat, Metal ppm 0): 658 | T72 (turbidity of yeast suspension) ([1]; neat, Metal ppm 0): 642 | T96 (turbidity of yeast suspension) ([1]; neat, Metal ppm 0): 639 | T0 (turbidity of yeast suspension) ([1]; neat, Metal ppm 0): 48 | T18 − T0 (change in turbidity) [1, 5]: 2 | T48 − T0 (change in turbidity) [1, 5]: 0 | T72 − T0 (change in turbidity) [1, 5]: 0 | T96 − T0 (change in turbidity) [1, 5]: −1 | T18 (turbidity of yeast suspension) [1, 6]: 90 | T48 (turbidity of yeast suspension) [1, 6]: 88 | T72 (turbidity of yeast suspension) [1, 6]: 88 | T96 (turbidity of yeast suspension) [1, 6]: 87 | T0 (turbidity of yeast suspension) [1, 6]: 88 | T18 − T0 (change in turbidity) [1, 7]: 13 | T48 − T0 (change in turbidity) [1, 7]: 2 | T72 − T0 (change in turbidity) [1, 7]: 7 | T96 − T0 (change in turbidity) [1, 7]: 1 | T18 (turbidity of yeast suspension) [1, 8]: 244 | T48 (turbidity of yeast suspension) [1, 8]: 233 | T72 (turbidity of yeast suspension) [1, 8]: 238 | T96 (turbidity of yeast suspension) [1, 8]: 232 | T0 (turbidity of yeast suspension) [1, 8]: 231

Source: US20080292673A1, “Bioactive agrichemical compositions and use therreof” (priority 2007, published 2008)
